Results from a melting point compilation (Tetko et al.; mined from patent text by program, amines drawn as free bases though some values may be those of a salt).

Structure (SMILES) | melting point
CCCc1nc(-n2cccc2C(=O)C(F)(F)F)c(C(=O)OC)[nH]1 | 158 to 159 °C
CC(CC=Cc1ccccc1)C1CC=C2C3=C(CCC21C)C1(C)CCC(O)C(C)(C)C1CC3 (centres undefined) | 127 °C
O=C(c1c[nH]c2cc(O)ccc12)C1CSC(c2cccnc2)N1 (centres undefined) | 203 to 205 °C
CCc1c(-c2ccc(O)cc2)c2ccc3ccc(COCCN4CCCC4)c1n32 | 183 to 187 °C
O=C1OC(N2C(=O)NC(=O)C23C(=O)N(Cc2ccc(Cl)c(Cl)c2)c2ccccc23)c2ccccc21 (centres undefined) | 154 to 158 °C
COc1ccc(O)c(C2C(=O)N(Cc3ccc(C(F)(F)F)o3)c3cccc(Cl)c32)n1 (centres undefined) | 151 to 152 °C
O=C1C(c2ccc(O)cc2)=C(c2ccccc2)c2ccc(O)cc21 | 100 to 110 °C
CC(C)(C)c1cc(-c2n[nH]c(=S)[nH]2)cc(C(C)(C)C)c1O | 271 °C
CC1(C#N)CCCc2nc(-c3ccccc3)ccc21 (centres undefined) | 114 to 116 °C
O=C(C1CCCCC1)N1CC2CC2(c2ccccc2)C1 (centres undefined) | 81 to 82 °C
CC(C)(C)C1=CC(=Cc2ccc(C#N)cc2)C=C(C(C)(C)C)C1=O | 147 to 148 °C
CC1=C(C(=O)OCc2ccccc2)C(c2cccc(Cl)c2Cl)C(C(=O)OCc2ccccc2)=C(C)N1 | 131 to 132 °C
CCOC(=O)C1=C(C)NC(C)=C([N+](=O)[O-])C1c1cccc(Cl)c1 (centres undefined) | 168 °C
O=S(=O)(CCCCl)NC1CC1 | 48 to 49.5 °C
CCCCCCCCCCCCCCCCCCOC(=O)C(N)Cc1ccc(N)cc1 (centres undefined) | 54 to 56 °C
COc1c(C)c2c(c(O)c1C/C=C(\C)C(O)C(C)(C)C(=O)O)C(=O)OC2 (centres undefined) | 180 to 181 °C
O=C(NNC(c1ccccc1)(c1ccccc1)c1ccccc1)c1ccccc1 | 130 to 131 °C
Cc1ccc(-c2nc3ccccc3o2)cc1F | 121 to 122 °C
CCOC(=O)N1CCc2nc3ccccc3c(N3CCCC3)c2CC1 | 111 °C

Structure (SMILES) | melting point
CC12CCC(C(=Cc3ccc(C(=O)O)cc3)C1=O)C2(C)C (centres undefined) | 240 °C
CCCSc1ncc(CC(=O)O)n1Cc1ccccc1Cl | 68 to 71 °C
O=C1c2ccccc2CN1C1CCNCC1 | 144 to 146 °C
CC(C)(C)c1ccc2c(c1)OC(C(F)(F)F)C(C(=O)O)=C2 (centres undefined) | 166 to 167 °C
Cc1cc2c(c(C)c1C)C(C)(C)CCC2(C)C | 79 to 82 °C
CNC(=S)N(Cc1ccc(Cl)nc1)CC(F)(F)F | 98 to 100 °C
O=C(Nc1ccc(C(=O)N2Cc3cccn3Cc3ccccc32)cc1)c1cc(Cl)ccc1Cl | 218 to 220 °C
COc1cccc(OC)c1-c1nc2cnncc2[nH]1 | 207 °C
c1ccc(Cc2ncc(-c3ccc4cc(OCc5nnn[nH]5)ccc4c3)o2)cc1 | 227 to 228 °C
COC(=O)CCc1c(O)ncc2cc(OC)c(OC)cc12 | 178 to 180 °C
COc1cc(-c2ccccc2C)ccc1C(=O)N1Cc2ccc(C(=O)O)n2Cc2ccccc21 | 144 to 146 °C
COc1cc(COc2nn(-c3ccccc3)cc2/C=C/c2csc(C(C)(C)C)n2)ccc1OCc1nc(-c2ccc(CC(=O)O)cc2)oc1C | 113 to 115 °C
CC(=O)c1c(NC(=O)C(C)(C)C)cccc1C(F)(F)F | 142 °C
CCCN(C(=O)C=C(C)C)c1cccc(Br)c1 | 50 to 51 °C
Cc1ccc(NC(=O)NCc2cccc3c2CN(C2CCC(=O)NC2=O)C3=O)cc1Cl (centres undefined) | > 260 °C
Cn1cc(C(=S)NCc2ccc(Cl)cc2)c(=O)c2cc(I)ccc21 | 153 to 155 °C
COc1nscc1C(N)=O | 165 to 168 °C
Cn1ncnc1COc1nn2c(-c3cccc(F)c3)nncc2c1-c1ccccc1F | 169 to 170 °C
Cc1ccc(-c2ccc(F)cc2)cc1-c1c(O)c(C)nn(C)c1=O | 216 to 217 °C

Structure (SMILES) | melting point
CCOC(=O)[C@@H](Cc1cccnc1)NC(C)=O | 80 °C
CC(C)=Nn1c(S)nnc1-n1cccn1 | 132 to 138 °C
COc1ccc2c(Cc3c(Cl)cncc3Cl)nnc(N3CCOCC3)c2c1 | 179 to 180 °C
COc1nc(C(F)(F)F)c(F)c(=O)n1-c1cc(OC(C)C)c(Cl)cc1F | 144 to 146 °C
Cn1nc(-c2ccccc2)c(CNc2ccccc2C(=O)O)c1Cl | 192 to 193 °C
CN(C)c1ccc(C(=N)Nc2cccc(NC(=O)C=Cc3ccccc3)c2)cc1 | 225 to 227 °C
O=C(O)c1ccc(-n2cnnc2)cc1 | > 300 °C
O=C(O)COc1ccc(Cl)cc1-c1ccc(S(=O)(=O)N2CCOCC2)c(C(F)(F)F)c1 | 208 to 209 °C
CC(=O)NC[C@H]1CN(c2ccc(N3CCC(=C(C#N)Cc4ccccc4)CC3)c(F)c2)C(=O)O1 | 98 to 100 °C
COc1ccc(N2CCN(c3c(C)c(C)c4c(c3C)C(c3ccc(Cl)cc3)C(C)(C)O4)CC2)cc1 (centres undefined) | 181 to 183 °C
COC(=O)[C@H](Cc1ccccc1)NC(=O)c1ccc([N+](=O)[O-])cc1 | 115 to 116 °C
Cc1oc(-c2ccc(Cl)cc2)nc1CO | 130 to 131 °C
Fc1cccc(-c2nc3cnccc3[nH]2)c1 | 290 to 291 °C
c1ccc(-c2cnc3nncn3c2)cc1 | 231 °C
O=[N+]([O-])c1ccc(Nc2nc(Cl)nc3nc[nH]c23)cc1 | > 270 °C
Oc1ccc2nc(-c3ccc4ccccc4c3)oc2c1 | 226 °C
CC1C(OC(=O)CCCCCCCCC(=O)OC2C(C)C(c3ccccc3)N(O)C(c3ccccc3)C2C)C(C)C(c2ccccc2)N(O)C1c1ccccc1 (centres undefined) | 190 to 191 °C
Cc1ccc(-c2cc(C(=O)O)nn2Cc2ccc(C)c(Cl)c2)cc1C | 163 °C

The remaining lines, values ahead:

melting point | Structure (SMILES)
221 to 223 °C | CC(=O)Nc1ncc(/C=C\c2ccc([N+](=O)[O-])cc2)s1
185 to 187 °C | CN(C)C(=O)c1nnc(S)o1
144 to 146 °C | CC(CCCl)C(=O)Nc1cc(C(C)(C)C)ns1 (centres undefined)
128 to 131 °C | CC(=O)OCCn1c(=O)oc(=O)c2ccccc21
135 to 137 °C | CCOC(=O)C1(C(=O)N(Cc2ccccc2)Cc2ccccc2)CC(=O)N(C(C)c2ccccc2)C1 (centres undefined)
147 °C | OCc1cccn1CCN1CCC(=C2c3ccccc3CCn3ccnc32)CC1
262 to 263 °C | Cn1cc(C2=C(c3c4n(c5ccccc35)CCC(CO)C4)C(=O)NC2=O)c2ccccc21 (centres undefined)
178 to 180 °C | Clc1cc(N2CCCC2)nc(NC23CC4CC(CC(C4)C2)C3)n1
230 to 235 °C | COc1cc2oc(=O)c(CCCl)c(C)c2cc1O
173 to 175 °C | CCCN(CCC)CCCn1cc(Br)c2c3c(c(-c4ccccc4Cl)cc21)C(=O)NC3=O
187 to 190 °C | CCc1nc(C)c2nnc3ccc(F)cc3n12
93 to 95 °C | O=C(OCCOCc1ccccc1)n1c(-c2cscn2)nc2ccccc21
121 to 124 °C | CCCCC1NCCc2ccc(C(=O)N[C@@H](Cc3cc(F)cc(F)c3)[C@H](O)CNCc3cccc(CC)c3)cc21 (some centres undefined)
94.5 to 95.5 °C | CCOC(=O)C(C)c1ccc(NC(C)=O)cc1 (centres undefined)
> 250 °C | CC1CCN(c2ccc(-c3nc(C(=O)Nc4nccs4)c(-c4ccc(Cl)cc4)[nH]3)cc2)CC1
163 °C | CS(=O)(=O)Nc1ccc(Cl)c([N+](=O)[O-])c1
170 to 171 °C | CN(C)C=C1CN=C(c2ccccc2Cl)c2cc(Cl)ccc2C1=O
66 to 68 °C | CCCc1c(OCCCCc2ccc3c(Cl)c(OC)c(OC)c(Cl)c3c2)ccc(C(=O)OCc2ccccc2)c1O
229 to 232 °C | CCN(C)c1nc2cc(NC(=O)c3c(C(=O)N4CCC4)cnn3C)ccn2n1
196 °C | CCCn1c(=O)c2[nH]c(/C=C/c3ccc(OC)c(OC)c3)nc2n(CCC)c1=O
187 °C | CCC1CCc2c(sc3cc(N)ccc3c2=O)C1 (centres undefined)
< 20 °C | CCOC(=O)C(C)Oc1ccc(-c2ccc(CCNC(=O)c3cc(Cl)ccc3OC)cc2)cc1 (centres undefined)

melting point | Structure (SMILES)
184 to 185 °C | CC(=O)c1ccc(NC(=O)NCCCN(CCCNC(=O)Nc2ccc(C(C)=O)cc2)CCCNC(=O)Nc2ccc(C(C)=O)cc2)cc1
183 to 185 °C | COC(=O)[C@H]1CC[C@H](n2ccn(-c3ccc(OCc4ccccc4)cc3)c2=O)CC1
65 to 66 °C | CC(=O)COc1ccc(Cl)cc1Cc1ccccc1
168 to 169 °C | COc1cc(-c2c(-c3ccncc3)c(-c3ccc(F)cc3)nn2CCO)ccn1
248 to 252 °C | CCCCCCCCCCCCCCCCCC(=O)NN(C(=O)CCCCCCCCCCCCCCCCC)C(=O)CCC(=O)NN
37.4 °C | CCCCCCCCc1cnc(-c2ccc(OCC(C)OCCC)cc2)nc1 (centres undefined)
65 °C | Cc1c(C(F)(F)C(F)(F)F)oc2c(Br)cccc12
107 to 112 °C | OCc1c(Cl)cc(Cl)c2ccc(Cl)cc12
139 to 141 °C | O=C1c2ccccc2-c2c1c1ccccc1c(=O)n2CCCCCCO
120 to 121 °C | Cc1cc2c(s1)N(C(C)C)c1ccccc1N=C2N1CCN(C)CC1
108 to 110 °C | Cc1[nH]c2ccccc2c1CCCN1CCC(c2noc3cc(Cl)ccc23)CC1
198 to 200 °C | CCn1c([N+](=O)[O-])cnc1-c1nnc2ccc(N=CN(C)C)nn12
172 to 174 °C | O=[N+]([O-])C=C1NCCCN1Cc1ccc(Cl)cc1
134 to 136 °C | C=C1c2c(C)c(N3CCN(c4ccc(OC)cc4)CC3)c(C)c(C)c2OC1(C)C
181 to 182 °C | COc1cc2c(Nc3ccc(Cl)cc3F)ncnc2cc1OCCN1CCSCC1
170 to 172 °C | CC1=C(C(=O)OCCN(C)Cc2ccccc2)C(c2cccc3c(=O)c(C)c(-c4ccccc4)oc23)C(C(=O)OC(C)C)=C(C)N1 (centres undefined)
120 to 121 °C | O=C(CBr)NC1(F)C=CC=CC1C(=O)c1ccccc1 (centres undefined)
179 to 181 °C | c1ccc2c(c1)nnn2CSCn1nnc2ccccc21
162 to 164 °C | CC(C)C(NC(=O)OCc1ccccc1)C(=O)Nc1nncs1 (racemic)
132 to 135 °C | N#Cc1ccc(C2C(=O)N(Cc3ccc(F)cc3)Cc3cncn32)cc1 (centres undefined)
90 to 91 °C | CCOC(=O)COc1nc(-c2ccccc2)nc(C)c1C
